Consider one substance from patent US20250000952A1, “POLYPEPTIDE BASED ON RECEPTOR-INTERACTING PROTEIN KINASE-3 METHYLATION MODIFICATION AND APPLICATION THEREOF IN CELL NECROPTOSIS-RELATED DISEASES” (Air Force Medical University of the People's Liberation Army, priority 2023, published 2025).

For experiment [1], the system named is intestinal tissues of Prmt5^iIEC-KO mice. Put plainly: HE histological analysis of mouse intestine. Particulars: compared with TAT and unmodified (TAT-mRIP3) polypeptide group. The format is in vivo.
For a further experiment, the system named is mouse L929 cells. Put plainly: Membrane penetrating experiment (fluorescence microscopy of FITC-labeled polypeptide). Particulars: 20 μM polypeptide, 24 hours. The format is cell-based. The method, then: Under the condition of necroptosis activation, it is observed whether the symmetrical dimethyl modified polypeptide fragment is capable of reducing the necroptosis and protecting cells from death. 20 μM polypeptide is added to mouse L929 cells for 24 hours, and the efficiency of polypeptide entering the target cells is analyzed by fluorescence microscope, with the scale of 275 μm, and the results are shown in FIG. 1A-FIG. 1B.

The test system of a further experiment is mouse fibroblast L929. The experiment in a line: Necroptosis stimulation experiment, cell morphology after TNF-α + Z-VAD. The format is cell-based. Particulars: L929, TNF-α (20 ng/mL)+Z-VAD (20 μM), polypeptide 20 μM, compared with TAT-mRIP3. The method, then: The necroptosis induced by TNF-α (20 ng/mL)+Z-VAD (20 μM) is in mouse fibroblast L929, and polypeptide (20 μM) is added to intervene. After 12 hours treatment, the morphological changes of the cell are analyzed: Dimethyl sulfoxide (DMSO) is used as control group); the scale is 20 μm.
After 12 hours, the necroptosis of the cells is stimulated.

A further experiment has as its system Prmt5^iIEC-KO mice. The experiment in a line: Survival (lifetime) analysis of tamoxifen-induced Prmt5 knockout mice. The format is in vivo, mouse. The conditions noted are these: tamoxifen 75 mg/kg, polypeptide 10 mg/kg intraperitoneally once a day until death, ** p<0.01. The method, then: Tamoxifen-induced mouse intestinal epithelial cell-specific gene knockout mice (Prmt5^iIEC-KO) are used. Tamoxifen is given (75 mg/kg) to mice at age of 8 weeks to induce Prmt5 gene knockout and cell necroptosis (intraperitoneal injection, once a day, for 5 days). Using Prmt5^iIEC-KO, while tamoxifen is injected to induce Prmt5 gene knockout, mice are injected with different types and concentrations of peptides intraperitoneally, and the survival cycle of mice is analyzed, ** p<0.01. Mice are injected intraperitoneally with 10 mg/kg polypeptide once a day until the mice die.

A further experiment concerns pRIP1, pRIP3 and pMLKL. The experiment in a line: Protein detection of necroptosis marker molecules after TNF-α + Z-VAD. The conditions noted are these: L929, TNF-α (20 ng/ml)+Z-VAD (20 μM), peptide 10 μM, 20 μM and 50 μM, 12 hours. The format is cell-based, mouse. The method, then: Furthermore, the necroptosis reaction in cells is detected. Mouse fibroblast L929 is treated with the classic cell necroptosis inducer TNF-α (20 ng/ml)+Z-VAD (20 μM), and at the same time, the peptides TAT (20 μM), TAT-mRIP3-WT and TAT-mRIP3-SDMA (10, 20 and 50 μM) are added. Cell samples are collected for protein detection after 12 hours.

Entries after “also recorded” stand apart in the source; their conditions may differ.

Regarding “TAT-mRIP3-SDMA: GRKKRRQRRRPQQAQFGRG (SDMA) GWQPFHK; cell-penetrating peptide TAT connected to mouse RIP3 peptide with symmetric di-methylated arginine 479”, the “intestinal tissue necrosis and intestinal cavity structure (HE staining)” value in experiment [1] was “significant protective effect”. For the same substance, the “efficiency of polypeptide entering the target cells (fluorescence intensity)” value with mouse L929 cells was “capable of entering mouse lung fibroblast L929”. The “protection against necroptosis / cell death (cell morphology)” value in the experiment on mouse fibroblast L929 is given as “reducing cell death; also recorded: obvious protective effect”. The lifetime of mice result in the experiment on Prmt5^iIEC-KO mice is listed as “significantly prolonged”. Besides, the “expression levels of pRIP1, pRIP3 and pMLKL” value in the experiment on pRIP1, pRIP3 and pMLKL is given as “decreasing the expression levels; also recorded: lower than control group”.
